From ChEMBL document CHEMBL4406802, “Human disorders associated with inflammation and the evolving role of natural products to overcome” (Eur J Med Chem, 2019) come the findings set out here.

Assay [1] has as its system RAW264.7. The assay is described as follows: Antiinflammatory activity in mouse RAW264.7 cells assessed as inhibition of LPS-induced nitric oxide production. The assay is classed as functional, cell-based.
A further assay has as its system BV-2. The assay is described as follows: Antiinflammatory activity in mouse BV2 cells assessed as inhibition of LPS-induced nitric oxide production. The assay is classed as functional, cell-based.
In assay [2] the test system is RAW264.7. In words: Antiinflammatory activity in mouse RAW264.7 cells assessed as inhibition of LPS-induced nitric oxide production at 50 uM preincubated for 2 hrs followed by LPS stimulation measured after 24 hrs by Griess reagent based assay relative to control. The assay is classed as functional.
The test system of assay [3] is RAW264.7. The assay is described as follows: Antiinflammatory activity in mouse RAW264.7 cells assessed as inhibition of LPS-induced nitric oxide production at 10 uM preincubated for 2 hrs followed by LPS stimulation measured after 24 hrs by Griess reagent based assay relative to control. The assay is classed as functional.
Assay [4] deals with RAW264.7. The assay is described as follows: Antiinflammatory activity in mouse RAW264.7 cells assessed as inhibition of LPS-induced nitric oxide production at 20 uM preincubated for 2 hrs followed by LPS stimulation measured after 24 hrs by Griess reagent based assay relative to control. Format: functional.
The next assay concerns THP-1. In words: Antiinflammatory activity against human THP1 cells assessed as inhibition of LPS induced TNF-alpha at 100 uM preincubated for 30 mins followed by LPS stimulation measured after 24 hrs by ELISA relative to control. The assay is classed as functional.
The target in assay [5] is T1, Prostaglandin G/H synthase 2 (Homo sapiens) (UniProt P35354).
T1 sequence (whole entry): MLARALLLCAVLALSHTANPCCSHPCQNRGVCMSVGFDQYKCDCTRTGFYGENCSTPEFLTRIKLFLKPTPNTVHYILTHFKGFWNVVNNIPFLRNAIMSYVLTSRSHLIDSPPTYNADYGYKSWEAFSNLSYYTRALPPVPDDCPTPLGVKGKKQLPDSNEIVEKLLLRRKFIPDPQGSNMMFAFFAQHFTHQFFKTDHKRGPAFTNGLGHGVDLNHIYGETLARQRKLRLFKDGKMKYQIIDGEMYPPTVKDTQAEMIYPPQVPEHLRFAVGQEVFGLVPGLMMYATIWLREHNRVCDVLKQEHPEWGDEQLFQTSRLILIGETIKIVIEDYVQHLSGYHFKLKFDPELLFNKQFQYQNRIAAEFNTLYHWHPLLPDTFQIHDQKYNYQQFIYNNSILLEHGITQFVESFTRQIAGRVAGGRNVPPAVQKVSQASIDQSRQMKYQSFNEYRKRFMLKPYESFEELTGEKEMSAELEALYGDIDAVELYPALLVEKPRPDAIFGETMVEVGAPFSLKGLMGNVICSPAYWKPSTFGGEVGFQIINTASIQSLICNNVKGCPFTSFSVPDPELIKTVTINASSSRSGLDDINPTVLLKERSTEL
The assay is described as follows: Inhibition of COX2 (unknown origin) at 20 uM relative to control.

The next assay has as its target Interleukin-1 beta (Homo sapiens, UniProt P01584). In words: Inhibition of IL1-beta (unknown origin).
Assay [6] has as its target Nitric oxide synthase, inducible (Homo sapiens, UniProt P35228). The assay is described as follows: Inhibition of iNOS (unknown origin).
Assay [7] addresses T1, Prostaglandin G/H synthase 2 (Homo sapiens). In words: Inhibition of COX2 (unknown origin) at […] using arachidonic acid as substrate preincubated for 15 mins followed by arachidonic acid addition measured after 2 mins by ELISA relative to control.
Assay [8] can be described thus: Inhibition of ovine 5-lox by EIA. Also noted: species or system Ovis aries.
The target in assay [9] is T2, Prostaglandin G/H synthase 2 (Ovis aries, UniProt P79208).
T2 sequence (P79208 whole entry): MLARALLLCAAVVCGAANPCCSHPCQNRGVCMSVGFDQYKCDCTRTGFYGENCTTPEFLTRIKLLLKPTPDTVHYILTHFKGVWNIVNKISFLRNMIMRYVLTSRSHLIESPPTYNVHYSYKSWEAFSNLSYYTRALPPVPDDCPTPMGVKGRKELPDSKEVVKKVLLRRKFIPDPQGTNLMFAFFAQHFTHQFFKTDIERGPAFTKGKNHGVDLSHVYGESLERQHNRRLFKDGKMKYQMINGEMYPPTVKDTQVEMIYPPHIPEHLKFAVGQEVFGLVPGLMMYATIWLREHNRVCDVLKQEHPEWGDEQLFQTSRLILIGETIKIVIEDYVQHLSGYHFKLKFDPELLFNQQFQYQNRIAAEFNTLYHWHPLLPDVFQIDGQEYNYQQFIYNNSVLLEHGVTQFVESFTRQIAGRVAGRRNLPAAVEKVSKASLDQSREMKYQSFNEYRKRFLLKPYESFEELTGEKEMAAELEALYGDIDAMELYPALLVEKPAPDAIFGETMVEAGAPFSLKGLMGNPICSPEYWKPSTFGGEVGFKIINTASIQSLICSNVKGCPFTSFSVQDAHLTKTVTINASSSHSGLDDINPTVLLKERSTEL
The assay is described as follows: Inhibition of ovine COX2 by EIA.

Assay [10] addresses T2, Prostaglandin G/H synthase 2. The assay is described as follows: Inhibition of ovine COX2.
Assay [11] addresses T3, Prostaglandin G/H synthase 1 (Ovis aries, UniProt P05979).
T3 sequence (P05979 whole entry): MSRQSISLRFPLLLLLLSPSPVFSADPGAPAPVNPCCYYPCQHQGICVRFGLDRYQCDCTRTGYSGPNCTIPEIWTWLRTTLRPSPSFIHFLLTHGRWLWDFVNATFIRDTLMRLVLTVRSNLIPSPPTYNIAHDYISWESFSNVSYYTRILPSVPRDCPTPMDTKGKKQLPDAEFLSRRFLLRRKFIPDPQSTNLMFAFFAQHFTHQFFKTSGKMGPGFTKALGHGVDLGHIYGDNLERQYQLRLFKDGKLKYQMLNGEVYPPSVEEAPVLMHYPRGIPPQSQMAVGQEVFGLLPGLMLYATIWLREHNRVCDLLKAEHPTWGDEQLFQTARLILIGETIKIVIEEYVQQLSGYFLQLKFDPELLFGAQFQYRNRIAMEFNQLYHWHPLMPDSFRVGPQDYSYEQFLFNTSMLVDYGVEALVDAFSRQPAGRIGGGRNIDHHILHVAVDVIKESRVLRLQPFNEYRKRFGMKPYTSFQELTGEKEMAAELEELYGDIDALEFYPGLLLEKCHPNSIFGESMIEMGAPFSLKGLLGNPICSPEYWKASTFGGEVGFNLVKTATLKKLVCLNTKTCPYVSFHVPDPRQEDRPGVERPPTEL
In words: Inhibition of ovine COX1.

Assay [12] has as its target T2, Prostaglandin G/H synthase 2. In words: Inhibition of ovine COX2 using arachidonic acid as substrate by enzyme immunoassay.
The test system of assay [13] is RAW264.7. The assay is described as follows: Antiinflammatory activity in mouse RAW264.7 cells assessed as inhibition of nitric oxide production. The assay is classed as functional, cell-based.
Assay [14] deals with RAW264.7. The assay is described as follows: Antiinflammatory activity in mouse RAW264.7 cells assessed as inhibition of LPS-induced nitric oxide production after 24 hrs. Format: functional, cell-based. Conditions: RAW264.7, 24 h.

Sequence of Nitric oxide synthase, inducible (P35228 whole entry): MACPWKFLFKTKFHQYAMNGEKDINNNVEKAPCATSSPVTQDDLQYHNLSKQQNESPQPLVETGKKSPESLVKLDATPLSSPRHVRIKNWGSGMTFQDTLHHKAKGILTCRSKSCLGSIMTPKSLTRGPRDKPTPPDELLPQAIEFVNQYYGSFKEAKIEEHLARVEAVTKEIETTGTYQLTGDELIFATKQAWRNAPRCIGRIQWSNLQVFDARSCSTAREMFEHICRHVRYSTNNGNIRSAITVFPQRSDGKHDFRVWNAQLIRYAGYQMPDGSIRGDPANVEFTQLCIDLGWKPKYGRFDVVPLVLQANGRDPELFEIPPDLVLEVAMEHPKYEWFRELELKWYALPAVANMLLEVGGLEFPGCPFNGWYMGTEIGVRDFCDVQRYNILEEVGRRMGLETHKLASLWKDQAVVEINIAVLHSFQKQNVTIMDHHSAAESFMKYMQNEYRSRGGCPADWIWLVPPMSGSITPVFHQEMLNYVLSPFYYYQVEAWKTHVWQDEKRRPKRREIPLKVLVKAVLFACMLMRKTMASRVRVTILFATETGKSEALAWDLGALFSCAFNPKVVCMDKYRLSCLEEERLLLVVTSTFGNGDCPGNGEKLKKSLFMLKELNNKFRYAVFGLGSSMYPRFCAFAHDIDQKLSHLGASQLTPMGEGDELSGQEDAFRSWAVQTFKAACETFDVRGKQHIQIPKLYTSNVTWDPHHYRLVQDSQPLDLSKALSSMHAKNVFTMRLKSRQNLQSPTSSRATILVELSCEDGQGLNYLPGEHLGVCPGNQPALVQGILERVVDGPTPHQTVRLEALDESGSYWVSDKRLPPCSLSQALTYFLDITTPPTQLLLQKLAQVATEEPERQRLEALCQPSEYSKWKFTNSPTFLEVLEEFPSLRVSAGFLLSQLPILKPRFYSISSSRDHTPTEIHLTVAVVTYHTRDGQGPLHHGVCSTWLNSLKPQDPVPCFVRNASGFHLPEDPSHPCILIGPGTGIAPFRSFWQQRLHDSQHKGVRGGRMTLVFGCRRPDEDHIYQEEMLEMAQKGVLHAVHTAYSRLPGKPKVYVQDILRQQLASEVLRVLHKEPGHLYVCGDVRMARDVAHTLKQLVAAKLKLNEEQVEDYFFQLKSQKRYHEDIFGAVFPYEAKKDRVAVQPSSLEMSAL
Sequence of Interleukin-1 beta (P01584 117-269 limits assumed): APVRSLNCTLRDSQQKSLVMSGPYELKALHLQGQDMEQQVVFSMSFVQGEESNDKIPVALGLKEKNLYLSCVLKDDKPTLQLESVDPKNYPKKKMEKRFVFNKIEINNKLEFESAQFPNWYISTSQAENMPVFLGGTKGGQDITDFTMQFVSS

As to `C=C1[C@@H]([C@@]2(C)[C@@H](O)CC(=O)C(C)(C)[C@@H]2[C@@H](O)C(=O)OC)CC[C@@]2(C)[C@H](C3=C[C@@H](O)CC3=O)CC(=O)C[C@]12O`, the IC50 in the assay on RAW264.7 [1] came out at 5.04 µM; with BV-2, 4.97 µM.

On to `COc1cc(/C=C/c2ccccc2)c(C(=O)O)c(O)c1CC=C(C)C`, for which, in the assay on RAW264.7 [2], the inhibition at 50 µM came out at 40.9%. Moreover, the inhibition at 10 µM in the assay on RAW264.7 [3] is 21.2%. The inhibition at 20 µM in the assay with RAW264.7 [4] is 30.6%.

Take `C[C@@H]1O[C@@H](Oc2c(-c3cc(O)c(O)c(O)c3)oc3cc(O)cc(O)c3c2=O)[C@H](O)[C@H](O)[C@H]1O`: the inhibition at 100 µM in the assay on THP-1 stood at 19.5%.

Consider `CCCCCC(=O)/C=C/C=C\CCCCCCCC(=O)O`, for which the inhibition in [5] was determined as 16.6%.

As to `C/C=C(\C)C(=O)O[C@H]1[C@H](OC(C)=O)[C@@]23C[C@@]1(O)O[C@H]1C[C@]4(C)C(=CC[C@H]4c4ccoc4)[C@](C)(C(=O)C[C@H]2C(C)C)C13` (some centres not stated), the half-maximal inhibitory concentration (IC50) (against Interleukin-1 beta; in assay [6]) was 7.8 µM throughout.

For the compound `O=C(/C=C/CCc1ccc(O)cc1)CCc1ccc(O)cc1`, in [7], the inhibition amounted to 98.4%.

Regarding `CC(C)=CCC/C(C)=C/Cc1c(O)cc(O)c(C(=O)C(C)C)c1O`, the IC50 in assay [8] was found to be 2200 nM; in [9], 29.9 µM.

Take `CC(C)=CCCC(C(=O)O)C1CNC(=N)N1` (configuration not stated): the results for the IC50 in assay [10] and in assay [11] were 830 µM and 300 µM, respectively.

In [12], `CCOC(=O)[C@H](CO)NC(=O)c1cccc(O)c1O` displayed an IC50 of 2800 nM.

For `COc1cc2c(cc1C)C1=C(C)C(=O)OC1C(O)C2C` (configuration not stated), the IC50 in the assay with RAW264.7 [13] came to 51.9 µM.

For the compound `C=CC(C)(CCC=C(C)C)c1c(O)cc2c(c1O)C(=O)C[C@@H](c1ccc(O)c(O)c1)O2` (some centres not stated), the half-inhibitory concentration (IC50) in the assay on RAW264.7 [14] amounted to 3.32 µM.
